{"source": "ChEMBL document CHEMBL4715815", "about": "“Design, synthesis and biological evaluation of 7H-pyrrolo[2,3-d]pyrimidin-4-amine derivatives as selective Btk inhibitors with improved pharmacokinetic properties for the treatment of rheumatoid arthritis” (Eur J Med Chem, 2018)", "key": {"[1]": {"biological_target": "Calcium/calmodulin-dependent protein kinase type 1 (Homo sapiens, UniProt Q14012)", "sequence (Q14012 whole entry)": "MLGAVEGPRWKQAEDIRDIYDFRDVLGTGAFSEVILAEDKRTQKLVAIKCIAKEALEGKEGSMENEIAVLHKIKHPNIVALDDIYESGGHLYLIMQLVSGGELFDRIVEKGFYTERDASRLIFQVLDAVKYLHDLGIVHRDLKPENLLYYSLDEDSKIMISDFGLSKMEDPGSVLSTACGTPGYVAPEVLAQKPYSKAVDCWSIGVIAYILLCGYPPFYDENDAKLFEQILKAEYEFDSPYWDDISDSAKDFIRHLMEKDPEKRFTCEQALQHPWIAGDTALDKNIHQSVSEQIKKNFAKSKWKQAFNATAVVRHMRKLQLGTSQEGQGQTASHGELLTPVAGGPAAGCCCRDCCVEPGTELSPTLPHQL", "test": "Inhibition of CAMK1 (unknown origin)"}, "[2]": {"test": "Metabolic stability in human liver microsomes assessed as half life at 100 uM/L measured upto 90 mins by LC-MS/MS analysis", "format": "ADME, Microsome", "settings": "[…]"}, "[3]": {"biological_target": "T1, Tyrosine-protein kinase BTK (Homo sapiens, UniProt Q06187)", "T1 sequence (Q06187 whole entry)": "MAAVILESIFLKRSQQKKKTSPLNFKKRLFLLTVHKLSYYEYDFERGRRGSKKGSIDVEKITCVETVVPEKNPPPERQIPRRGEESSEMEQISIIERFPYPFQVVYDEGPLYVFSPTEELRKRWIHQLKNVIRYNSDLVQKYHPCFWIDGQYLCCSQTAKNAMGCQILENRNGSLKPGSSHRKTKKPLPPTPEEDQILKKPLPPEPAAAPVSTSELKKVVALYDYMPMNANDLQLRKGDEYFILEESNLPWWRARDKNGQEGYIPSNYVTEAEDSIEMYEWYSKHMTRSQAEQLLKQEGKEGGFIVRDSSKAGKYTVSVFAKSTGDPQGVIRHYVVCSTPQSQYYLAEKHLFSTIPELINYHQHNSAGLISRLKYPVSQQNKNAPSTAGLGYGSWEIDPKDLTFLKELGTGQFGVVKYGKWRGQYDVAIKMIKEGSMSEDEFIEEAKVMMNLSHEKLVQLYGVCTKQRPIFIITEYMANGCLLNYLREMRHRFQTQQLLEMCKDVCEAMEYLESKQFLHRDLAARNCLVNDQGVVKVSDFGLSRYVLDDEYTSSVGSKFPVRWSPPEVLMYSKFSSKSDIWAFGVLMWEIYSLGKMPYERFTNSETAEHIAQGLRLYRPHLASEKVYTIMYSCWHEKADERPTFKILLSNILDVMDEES", "test": "Inhibition of BTK in human Raji cells assessed as reduction in BTK Y551 phosphorylation at 0.03 to 10 uM incubated for 1 hr by Western blot analysis", "format": "cell-based", "settings": "dose 0.03-10 µM"}, "[4]": {"test": "Volume of distribution in Sprague-Dawley rat at 3 mg/kg, iv measured up to 24 hrs by LC-MS/MS analysis", "format": "ADME, organism-based", "settings": "in vivo"}, "[5]": {"biological_target": "Receptor tyrosine-protein kinase erbB-2 (Homo sapiens, UniProt P04626)", "sequence (P04626 whole entry)": "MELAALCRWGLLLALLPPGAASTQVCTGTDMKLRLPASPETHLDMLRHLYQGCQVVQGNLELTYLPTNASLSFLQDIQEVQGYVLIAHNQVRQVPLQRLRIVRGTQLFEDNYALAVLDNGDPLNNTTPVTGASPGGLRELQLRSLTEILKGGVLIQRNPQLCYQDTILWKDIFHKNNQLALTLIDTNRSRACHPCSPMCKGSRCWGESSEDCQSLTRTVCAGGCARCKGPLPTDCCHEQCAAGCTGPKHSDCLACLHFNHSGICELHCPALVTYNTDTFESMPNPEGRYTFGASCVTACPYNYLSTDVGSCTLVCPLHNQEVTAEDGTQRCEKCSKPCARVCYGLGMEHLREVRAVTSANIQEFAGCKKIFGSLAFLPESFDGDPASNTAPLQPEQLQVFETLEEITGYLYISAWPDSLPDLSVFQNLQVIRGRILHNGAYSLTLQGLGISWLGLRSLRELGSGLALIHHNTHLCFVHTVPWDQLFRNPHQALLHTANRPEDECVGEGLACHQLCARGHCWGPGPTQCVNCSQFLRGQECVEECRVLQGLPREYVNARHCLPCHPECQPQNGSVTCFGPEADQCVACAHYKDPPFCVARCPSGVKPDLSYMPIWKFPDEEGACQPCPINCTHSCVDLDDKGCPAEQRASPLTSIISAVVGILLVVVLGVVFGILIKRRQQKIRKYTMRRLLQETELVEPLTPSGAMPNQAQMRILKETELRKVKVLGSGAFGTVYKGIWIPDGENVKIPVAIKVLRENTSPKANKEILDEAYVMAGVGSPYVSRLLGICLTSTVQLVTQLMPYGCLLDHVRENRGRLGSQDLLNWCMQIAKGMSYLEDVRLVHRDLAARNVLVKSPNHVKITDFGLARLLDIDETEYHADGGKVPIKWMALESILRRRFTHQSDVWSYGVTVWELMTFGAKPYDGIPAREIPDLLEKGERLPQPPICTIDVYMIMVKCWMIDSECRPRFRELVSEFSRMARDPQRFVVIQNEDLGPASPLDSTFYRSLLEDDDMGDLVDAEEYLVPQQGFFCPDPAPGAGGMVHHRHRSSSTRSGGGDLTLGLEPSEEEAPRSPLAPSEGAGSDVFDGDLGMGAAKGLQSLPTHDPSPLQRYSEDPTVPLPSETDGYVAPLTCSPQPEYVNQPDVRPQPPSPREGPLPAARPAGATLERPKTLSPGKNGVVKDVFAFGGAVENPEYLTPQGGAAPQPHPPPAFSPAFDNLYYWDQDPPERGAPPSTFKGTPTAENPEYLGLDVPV", "test": "Inhibition of ErBB2 (unknown origin)"}, "[6]": {"biological_target": "T1, Tyrosine-protein kinase BTK", "test": "Inhibition of BTK in human Daudi cells assessed as reduction in BTK Y223 phosphorylation incubated for 1 hr by Western blot analysis", "format": "cell-based", "settings": "dose 0.03-10 µM"}, "[7]": {"biological_target": "High affinity nerve growth factor receptor (Homo sapiens, UniProt P04629)", "sequence (P04629 whole entry)": "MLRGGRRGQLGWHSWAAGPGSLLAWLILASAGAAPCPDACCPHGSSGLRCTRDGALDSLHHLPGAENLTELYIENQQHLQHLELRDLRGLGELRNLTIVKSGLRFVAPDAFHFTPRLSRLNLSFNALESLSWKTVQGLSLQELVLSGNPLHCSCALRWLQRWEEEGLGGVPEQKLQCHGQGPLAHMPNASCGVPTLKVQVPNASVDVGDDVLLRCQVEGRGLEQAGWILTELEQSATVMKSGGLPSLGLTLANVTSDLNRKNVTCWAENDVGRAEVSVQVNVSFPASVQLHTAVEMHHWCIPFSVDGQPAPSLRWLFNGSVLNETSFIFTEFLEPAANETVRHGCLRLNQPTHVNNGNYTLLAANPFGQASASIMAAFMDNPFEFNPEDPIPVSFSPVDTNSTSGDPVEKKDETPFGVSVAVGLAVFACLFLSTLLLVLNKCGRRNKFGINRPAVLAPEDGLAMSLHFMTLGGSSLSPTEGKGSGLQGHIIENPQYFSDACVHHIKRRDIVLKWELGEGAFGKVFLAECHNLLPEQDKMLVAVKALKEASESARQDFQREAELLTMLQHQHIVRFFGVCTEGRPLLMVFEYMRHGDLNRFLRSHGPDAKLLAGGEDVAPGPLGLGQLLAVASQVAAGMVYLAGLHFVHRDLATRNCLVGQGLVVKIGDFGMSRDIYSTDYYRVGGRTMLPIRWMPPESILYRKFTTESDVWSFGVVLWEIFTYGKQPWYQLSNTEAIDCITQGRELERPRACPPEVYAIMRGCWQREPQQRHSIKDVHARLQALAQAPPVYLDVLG", "test": "Inhibition of recombinant human TRKa using Ulight-Poly GAT[EAY(1:1:1)]n as substrate incubate for 10 mins by LANCE assay"}, "[8]": {"test": "Cmax in Sprague-Dawley rat at 3 mg/kg, iv measured up to 24 hrs by LC-MS/MS analysis", "format": "ADME, organism-based", "design": "route intravenous, dose 3 mg/kg, time <=24", "settings": "in vivo"}, "[9]": {"test": "Toxicity in BALB/c mouse assessed as effect on liver at 2 g/kg, po measured after 7 days of administration by histopathological analysis", "settings": "in vivo, 168 h"}, "[10]": {"biological_target": "BDNF/NT-3 growth factors receptor (Homo sapiens, UniProt Q16620)", "sequence (Q16620 whole entry)": "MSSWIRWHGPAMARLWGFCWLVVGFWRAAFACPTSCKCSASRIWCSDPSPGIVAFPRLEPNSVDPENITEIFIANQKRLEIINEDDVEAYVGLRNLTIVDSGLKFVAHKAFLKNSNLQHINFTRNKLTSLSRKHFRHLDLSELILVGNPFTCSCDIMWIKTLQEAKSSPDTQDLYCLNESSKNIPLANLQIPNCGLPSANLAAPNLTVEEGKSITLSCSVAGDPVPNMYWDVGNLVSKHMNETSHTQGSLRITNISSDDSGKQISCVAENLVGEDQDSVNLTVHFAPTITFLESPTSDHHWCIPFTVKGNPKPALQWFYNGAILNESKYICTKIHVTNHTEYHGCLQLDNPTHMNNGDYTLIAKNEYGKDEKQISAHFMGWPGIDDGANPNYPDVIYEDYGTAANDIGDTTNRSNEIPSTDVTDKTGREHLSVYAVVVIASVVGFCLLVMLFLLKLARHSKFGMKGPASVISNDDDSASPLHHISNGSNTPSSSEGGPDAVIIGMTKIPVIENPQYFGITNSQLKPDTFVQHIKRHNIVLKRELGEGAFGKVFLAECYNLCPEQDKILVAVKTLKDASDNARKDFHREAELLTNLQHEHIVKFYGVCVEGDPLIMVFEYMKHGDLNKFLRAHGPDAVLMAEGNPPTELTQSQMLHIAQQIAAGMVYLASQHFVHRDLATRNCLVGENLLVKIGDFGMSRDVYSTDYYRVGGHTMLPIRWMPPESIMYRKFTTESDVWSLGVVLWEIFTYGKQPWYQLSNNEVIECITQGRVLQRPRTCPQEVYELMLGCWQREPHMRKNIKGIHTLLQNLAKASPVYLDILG", "test": "Inhibition of recombinant human TRKb using Ulight-Poly GAT[EAY(1:1:1)]n as substrate incubate for 10 mins by LANCE assay"}, "[11]": {"biological_target": "Dual specificity mitogen-activated protein kinase kinase 4 (Homo sapiens, UniProt P45985)", "sequence (P45985 whole entry)": "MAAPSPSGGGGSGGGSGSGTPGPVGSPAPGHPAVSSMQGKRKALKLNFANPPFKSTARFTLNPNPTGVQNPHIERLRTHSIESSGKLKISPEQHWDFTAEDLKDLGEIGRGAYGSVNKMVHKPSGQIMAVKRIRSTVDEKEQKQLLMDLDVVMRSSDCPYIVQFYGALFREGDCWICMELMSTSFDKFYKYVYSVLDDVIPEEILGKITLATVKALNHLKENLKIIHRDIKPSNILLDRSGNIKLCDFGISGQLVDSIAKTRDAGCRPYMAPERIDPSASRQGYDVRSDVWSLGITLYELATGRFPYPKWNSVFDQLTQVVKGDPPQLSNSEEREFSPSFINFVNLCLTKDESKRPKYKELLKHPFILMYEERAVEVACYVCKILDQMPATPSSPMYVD", "test": "Inhibition of MKK4 (unknown origin)"}, "[12]": {"biological_target": "Receptor tyrosine-protein kinase erbB-4 (Homo sapiens, UniProt Q15303)", "test": "Inhibition of ErBB4 (unknown origin)"}, "[13]": {"test": "Metabolic stability in mouse liver microsomes assessed as half life at 100 uM/L measured upto 90 mins by LC-MS/MS analysis", "format": "ADME, Microsome"}, "[14]": {"biological_target": "Dual specificity mitogen-activated protein kinase kinase 6 (Homo sapiens, UniProt P52564)", "sequence (P52564 whole entry)": "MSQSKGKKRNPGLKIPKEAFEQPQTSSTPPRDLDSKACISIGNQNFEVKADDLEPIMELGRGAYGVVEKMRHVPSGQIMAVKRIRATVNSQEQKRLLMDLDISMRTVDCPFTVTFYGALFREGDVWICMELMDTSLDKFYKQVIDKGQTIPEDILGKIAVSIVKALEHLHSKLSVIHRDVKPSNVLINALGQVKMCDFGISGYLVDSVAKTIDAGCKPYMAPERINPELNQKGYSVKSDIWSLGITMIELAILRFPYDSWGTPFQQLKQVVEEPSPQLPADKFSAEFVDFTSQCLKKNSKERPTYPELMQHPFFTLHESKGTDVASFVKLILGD", "test": "Inhibition of MKK6 (unknown origin)"}}, "note": "Activity calls are given as the source filed them. The calls are words filed in the database; no cut-off is given here."}
{"smiles": "C=CC(=O)N1CCC(Cn2cc(-c3ccc4c(c3)OCO4)c3c(N)ncnc32)CC1", "values": [{"measurement": "IC50", "setting": "[1]", "value": "> 10", "unit": "µM"}, {"measurement": "half-life at 100 µM", "setting": "[2]", "value": 5.5, "unit": "h"}, {"measurement": "inhibition", "setting": "[3]", "value": "inactive"}, {"measurement": "Vd", "setting": "[4]", "value": 1.21, "unit": "L/kg"}, {"measurement": "IC50", "setting": "[5]", "value": "> 10", "unit": "µM"}, {"measurement": "inhibition", "setting": "[6]", "value": "Dose-dependent effect"}, {"measurement": "IC50", "setting": "[7]", "value": "> 10", "unit": "µM"}, {"measurement": "Cmax", "setting": "[8]", "value": 3130, "unit": "ng/mL"}, {"measurement": "Activity", "setting": "[9]", "value": "Non-Toxic"}, {"measurement": "IC50", "setting": "[10]", "value": "> 10", "unit": "µM"}, {"measurement": "IC50", "setting": "[11]", "value": "> 10", "unit": "µM"}, {"measurement": "IC50", "setting": "[12]", "value": "> 10", "unit": "µM"}, {"measurement": "half-life at 100 µM", "setting": "[13]", "value": 4.28, "unit": "h"}, {"measurement": "IC50", "setting": "[14]", "value": "> 10", "unit": "µM"}]}
